The target of this assay is PAK1 (Homo sapiens, UniProt Q13153). The assay is described as follows: ADP-Glo kinase assay with human recombinant PAK1 (also labchip-based screen). It counts as biochemical. (In general: In ADP-Glo the light output rises with the ADP produced.)
Sequence of PAK1 (Q13153 2-545): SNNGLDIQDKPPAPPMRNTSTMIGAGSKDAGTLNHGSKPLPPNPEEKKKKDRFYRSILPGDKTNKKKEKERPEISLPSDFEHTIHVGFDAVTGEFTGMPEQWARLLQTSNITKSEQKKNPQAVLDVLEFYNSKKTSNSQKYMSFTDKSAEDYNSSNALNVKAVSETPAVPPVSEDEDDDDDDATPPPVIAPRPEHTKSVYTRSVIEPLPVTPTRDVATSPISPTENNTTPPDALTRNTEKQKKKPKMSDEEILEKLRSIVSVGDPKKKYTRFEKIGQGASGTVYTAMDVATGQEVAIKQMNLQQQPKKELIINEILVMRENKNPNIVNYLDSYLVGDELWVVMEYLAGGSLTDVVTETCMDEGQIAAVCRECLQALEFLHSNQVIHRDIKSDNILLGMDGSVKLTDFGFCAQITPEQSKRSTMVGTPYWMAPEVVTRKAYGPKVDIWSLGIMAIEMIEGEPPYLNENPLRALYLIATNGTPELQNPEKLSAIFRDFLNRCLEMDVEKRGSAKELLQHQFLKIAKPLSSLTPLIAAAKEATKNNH

In general, IC50 refers to the concentration at which inhibition is half-maximal. On to `CC(C)=CC[C@@H](O)C1=CC(=O)c2c(O)ccc(O)c2C1=O` [shikonin], for which the IC50 turned out to be 7.252 ± 0.054 µM.
